# Measurements taken from patent US20250313548A1 (Actio Biosciences, Inc., priority 2023, published 2025).
# Molecular target: human, KCNT1 (Homo sapiens (Human), UniProt Q5JUK3)
# Assay: FLIPR Tl/K Flux Assay
# Format: cell-based
# Conditions: HEK293 cells stably expressing human KCNT1; Tl+ flux stimulated with EC80 of agonist Loxapine
# How it was run: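 HEK293 cells stably expressing human KCNT1 were loaded with FLIPR potassium dye in HEPES/HBSS pH 7.4 with 5 mM probenecid, 1 h at 25 °C, then given test compound for 30 min at 25 °C. Tl+ flux was triggered with chloride-free buffer containing Tl+ and EC80 loxapine and read 160 s. IC50 came from Hill fits of % inhibition.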
# Sequence of human, KCNT1 (Q5JUK3 whole entry): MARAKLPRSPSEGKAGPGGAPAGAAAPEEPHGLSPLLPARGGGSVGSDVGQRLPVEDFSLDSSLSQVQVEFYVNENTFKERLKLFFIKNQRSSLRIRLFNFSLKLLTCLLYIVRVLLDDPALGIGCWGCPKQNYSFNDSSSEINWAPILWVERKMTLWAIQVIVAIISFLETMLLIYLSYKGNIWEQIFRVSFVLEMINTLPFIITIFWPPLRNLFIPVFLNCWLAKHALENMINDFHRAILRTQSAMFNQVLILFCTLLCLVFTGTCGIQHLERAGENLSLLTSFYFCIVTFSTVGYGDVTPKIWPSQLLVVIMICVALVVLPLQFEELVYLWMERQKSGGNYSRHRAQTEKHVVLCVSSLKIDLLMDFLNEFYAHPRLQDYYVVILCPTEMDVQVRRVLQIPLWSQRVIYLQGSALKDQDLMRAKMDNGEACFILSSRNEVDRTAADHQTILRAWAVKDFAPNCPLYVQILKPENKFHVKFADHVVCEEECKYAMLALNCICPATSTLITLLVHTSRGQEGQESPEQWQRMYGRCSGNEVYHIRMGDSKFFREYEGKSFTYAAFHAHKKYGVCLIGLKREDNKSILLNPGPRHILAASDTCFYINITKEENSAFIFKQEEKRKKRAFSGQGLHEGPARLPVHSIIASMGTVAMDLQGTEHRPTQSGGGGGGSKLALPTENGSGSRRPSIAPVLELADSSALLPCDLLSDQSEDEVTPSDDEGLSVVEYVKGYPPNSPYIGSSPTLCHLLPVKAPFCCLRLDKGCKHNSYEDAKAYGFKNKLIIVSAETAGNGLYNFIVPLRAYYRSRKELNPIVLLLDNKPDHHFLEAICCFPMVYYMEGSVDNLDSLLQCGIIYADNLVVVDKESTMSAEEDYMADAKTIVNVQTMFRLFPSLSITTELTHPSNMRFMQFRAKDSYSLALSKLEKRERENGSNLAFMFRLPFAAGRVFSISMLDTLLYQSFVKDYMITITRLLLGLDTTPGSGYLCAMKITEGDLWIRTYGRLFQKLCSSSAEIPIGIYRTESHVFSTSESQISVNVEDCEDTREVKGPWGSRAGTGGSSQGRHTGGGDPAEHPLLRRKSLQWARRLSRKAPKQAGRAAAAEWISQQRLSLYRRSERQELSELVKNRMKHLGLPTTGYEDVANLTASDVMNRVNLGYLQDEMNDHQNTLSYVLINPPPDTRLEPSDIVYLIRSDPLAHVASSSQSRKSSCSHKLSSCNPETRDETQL
row,Compound,IC50
1,"COc1cc(C#N)cc(C(=O)N[C@H]2CCCn3nc(-c4ccnc(C(F)(F)F)c4)cc32)c1 [Compound I-341a, (S)-3-Cyano-5-methoxy-N-(2-(2-(trifluoromethyl)pyridin-4-yl)-4,5,6,7-tetrahydropyrazolo[1,5-a]pyridin-4-yl)benzamide]",< 250 nM
2,Cc1c2c(nn1-c1ccnc(C(F)(F)F)c1)CCC[C@@H]2NC(=O)c1cc(C(F)(F)F)nn1C [Compound I-90a],250 to 500 nM
3,"O=C(N[C@H]1CCn2nc(-c3ccnc(C(F)(F)F)c3)cc21)c1cn(C(F)(F)F)nc1C(F)(F)F [Compound I-521a, (S)-1,3-bis(trifluoromethyl)-N-(2-(2-(trifluoromethyl)pyridin-4-yl)-5,6-dihydro-4H-pyrrolo[1,2-b]pyrazol-4-yl)-1H-pyrazole-4-carboxamide]",< 250 nM
4,O=C(N[C@H]1CCCc2cnc(-c3ccnc(C(F)(F)F)c3)cc21)c1cccc(C(F)(F)F)c1 [Compound I-392a],< 250 nM
5,"CC(F)(F)c1cc(C(=O)N[C@H]2CCn3nc(-c4ccnc(C(F)(F)F)c4)cc32)ccn1 [Compound I-528a, (S)-2-(1,1-Difluoroethyl)-N-(2-(2-(trifluoromethyl)pyridin-4-yl)-5,6-dihydro-4H-pyrrolo[1,2-b]pyrazol-4-yl)isonicotinamide]",< 250 nM
6,"COc1cc(C(=O)N[C@H]2CCCn3nc(-c4ccnc(C(F)(F)F)c4)cc32)cc(OC)n1 [Compound I-124a, (S)-2,6-Dimethoxy-N-(2-(2-(trifluoromethyl)pyridin-4-yl)-4,5,6,7-tetrahydropyrazolo[1,5-a]pyridin-4-yl)isonicotinamide]",< 250 nM
7,"COc1cc(-c2cc3n(n2)CC[C@@H]3NC(=O)c2cc(C(F)(F)F)nn2C)c(F)cn1 [Compound I-243a, (S)-N-(2-(5-Fluoro-2-methoxypyridin-4-yl)-5,6-dihydro-4H-pyrrolo[1,2-b]pyrazol-4-yl)-1-methyl-3-(trifluoromethyl)-1H-pyrazole-5-carboxamide]",< 250 nM
8,Cn1nc(C(F)(F)F)cc1C(=O)N[C@H]1CCc2nn(-c3ccnc(OC(F)F)c3)cc21 [Compound I-74a],< 250 nM
9,"O=C(N[C@H]1CCCc2nc(-c3cc(C4CC4)ncc3F)oc21)c1cc(Cl)cc(Cl)c1 [Compound I-157a, (S)-3,5-Dichloro-N-(2-(2-cyclopropyl-5-fluoropyridin-4-yl)-4,5,6,7-tetrahydrobenzo[d]oxazol-7-yl)benzamide]",< 250 nM
10,CCc1cc(-c2cc3n(n2)CCC[C@@H]3NC(=O)c2cc(C(F)(F)F)nn2C)ccn1 [Compound I-390a],< 250 nM
11,Cn1nc(C(F)(F)F)cc1C(=O)N[C@H]1CCCn2nc(-c3cc(C(F)(F)F)cs3)cc21 [Compound I-117a],< 250 nM
12,COc1cc(C(=O)N[C@@H]2CCCCn3nc(-c4cc(C(F)(F)F)ncc4F)cc32)ccn1 [Compound I-517b],500 to 1000 nM
13,Cn1nc(C(F)F)cc1C(=O)N[C@H]1CCCn2nc(-c3ccnc(C(F)(F)F)c3)cc21 [Compound I-348a],< 250 nM
14,COc1cc(-c2cc3n(n2)CCC[C@@H]3NC(=O)c2ccnc(C(F)(F)F)c2)ccn1 [Compound I-364a],< 250 nM
15,Cc1ccccc1C(=O)N[C@@H]1CCc2nn(-c3ccnc(C(F)(F)F)c3)cc21 [Compound I-92b],> 1000 nM
16,"COc1cc(-c2cc3n(n2)CCC[C@@H]3NC(=O)c2cc(C#N)cc(C(F)(F)F)c2)ccn1 [Compound I-284a, (S)-3-Cyano-N-(2-(2-methoxypyridin-4-yl)-4,5,6,7-tetrahydropyrazolo[1,5-a]pyridin-4-yl)-5-(trifluoromethyl)benzamide]",< 250 nM
17,"Cn1nc(C(F)(F)F)nc1C(=O)N[C@H]1CCCc2oc(-c3ccnc(C4CC4)c3)nc21 [Compound I-229a, (S)-N-(2-(2-Cyclopropylpyridin-4-yl)-4,5,6,7-tetrahydrobenzo[d]oxazol-4-yl)-1-methyl-3-(trifluoromethyl)-1H-1,2,4-triazole-5-carboxamide]",< 250 nM
18,Cn1nc(C(F)(F)F)cc1C(=O)N[C@H]1CCc2nn(-c3ccnc(C4CCC4)c3)cc21 [Compound I-72a],< 250 nM
19,"N#Cc1cc(F)cc(C(=O)N[C@H]2CCCCn3nc(-c4ccnc(C(F)(F)F)c4)cc32)c1 [Compound I-319a, (S)-3-Cyano-5-fluoro-N-(2-(2-(trifluoromethyl)pyridin-4-yl)-5,6,7,8-tetrahydro-4H-pyrazolo[1,5-a]azepin-4-yl)benzamide]",< 250 nM
20,Cc1cc(C(=O)N[C@H]2CCCn3nc(-c4ccnc(C(F)(F)F)c4)cc32)n(C(F)F)n1 [Compound I-426a],< 250 nM
21,"O=C(NC1CCCc2nn(-c3ccnc(C(F)(F)F)c3)cc21)c1cccnc1 (racemic) [Compound I-32, (rac)-N-(2-(2-(Trifluoromethyl)pyridin-4-yl)-4,5,6,7-tetrahydro-2H-indazol-4-yl)nicotinamide]",> 1000 nM

row,Compound,IC50
1,Cn1nc(C(F)(F)F)nc1C(=O)N[C@@H]1CCn2nc(-c3cc(C(F)(F)F)ncc3Cl)cc21 [Compound I-481b],250 to 500 nM
2,"N#Cc1cc(C(=O)N[C@H]2CCCn3nc(-c4ccnc(C(F)(F)F)c4)cc32)cc(C(F)(F)F)c1 [Compound I-295a, (S)-3-Cyano-5-(trifluoromethyl)-N-(2-(2-(trifluoromethyl)pyridin-4-yl)-4,5,6,7-tetrahydropyrazolo[1,5-a]pyridin-4-yl)benzamide]",< 250 nM
3,"O=C(N[C@H]1CCCn2nc(-c3cc(C(F)(F)F)ncc3F)nc21)c1cncc(C(F)(F)F)n1 [Compound I-182a, (S)-N-(2-(5-Fluoro-2-(trifluoromethyl)pyridin-4-yl)-5,6,7,8-tetrahydro-[1,2,4]triazolo[1,5-a]pyridin-8-yl)-6-(trifluoromethyl)pyrazine-2-carboxamide]",500 to 1000 nM
4,CCOc1cc(-n2cc3c(n2)CCCC[C@@H]3NC(=O)c2cc(C(F)(F)F)nn2C)ccn1 [Compound I-360a],< 250 nM
5,"(rac)-N-(2-(2-Cyclopropylpyridin-4-yl)-4,5,6,7-tetrahydropyrazolo[1,5-a]pyridin-4-yl)-6-(trifluoromethyl)nicotinamide [Compound I-65]",< 250 nM
6,N#Cc1cccc(C(=O)NC2CCCCC3NC(c4ccnc(C(F)(F)F)c4)=NC23)c1 (stereo not drawn) [Compound I-463],> 1000 nM
7,Cn1nc(-c2ccccc2)cc1C(=O)N[C@H]1CCCn2nc(-c3ccnc(C(F)(F)F)c3)cc21 [Compound I-351a],< 250 nM
8,Cc1cc(C(=O)N[C@H]2CCCn3nc(-c4ccnc(C(F)(F)F)c4)cc32)cn(C)c1=O [Compound I-397a],> 1000 nM
9,CC(C)Oc1cc(C(=O)N[C@H]2CCCn3nc(-c4ccnc(C(F)(F)F)c4)cc32)n(C)n1 [Compound I-367a],< 250 nM
10,"Cn1nc(C(F)(F)F)cc1C(=O)N[C@H]1CCCc2oc(-c3ccnc(C4CC4)c3)nc21 [Compound I-121a, (S)—N-(2-(2-Cyclopropylpyridin-4-yl)-4,5,6,7-tetrahydrobenzo[d]oxazol-4-yl)-1-methyl-3-(trifluoromethyl)-1H-pyrazole-5-carboxamide]",< 250 nM
11,"CC(C)Oc1cc(C(=O)N[C@H]2CCn3nc(-c4ccnc(C5CC5)c4)cc32)ccn1 [Compound I-542a, (S)-N-(2-(2-Cyclopropylpyridin-4-yl)-5,6-dihydro-4H-pyrrolo[1,2-b]pyrazol-4-yl)-2-isopropoxyisonicotinamide]",< 250 nM
12,CCc1[nH]nc(C(=O)N[C@H]2CCCn3nc(-c4ccnc(C(F)(F)F)c4)cc32)c1F [Compound I-439a],< 250 nM
13,"CCOc1cc(-c2cc3n(n2)CCC[C@@H]3NC(=O)c2cc(F)cc(C#N)c2)ccn1 [Compound I-252a, (S)-3-Cyano-N-(2-(2-ethoxypyridin-4-yl)-4,5,6,7-tetrahydropyrazolo[1,5-a]pyridin-4-yl)-5-fluorobenzamide]",< 250 nM
14,"COc1cc(-c2nc3c(o2)[C@@H](NC(=O)c2cccc(C(F)(F)F)c2)CCC3)c(Cl)cn1 [Compound I-167a, (S)-N-(2-(5-Chloro-2-methoxypyridin-4-yl)-4,5,6,7-tetrahydrobenzo[d]oxazol-7-yl)-3-(trifluoromethyl)benzamide]",< 250 nM
15,"Cn1nc(C(F)(F)F)nc1C(=O)N[C@H]1CCCn2nc(-c3cc(C(F)(F)F)ncc3F)cc21 [Compound I-203a, (S)-N-(2-(5-Fluoro-2-(trifluoromethyl)pyridin-4-yl)-4,5,6,7-tetrahydropyrazolo[1,5-a]pyridin-4-yl)-1-methyl-3-(trifluoromethyl)-1H-1,2,4-triazole-5-carboxamide]",< 250 nM
16,"CC(F)(F)c1cc(-c2nc3c(o2)CCC[C@@H]3NC(=O)c2cncc(F)c2)ccn1 [Compound I-544a, (S)—N-(2-(2-(1,1-difluoroethyl)pyridin-4-yl)-4,5,6,7-tetrahydrobenzo[d]oxazol-4-yl)-5-fluoronicotinamide]",< 250 nM
17,Cn1nc(C(F)(F)F)cc1C(=O)N[C@H]1CCCc2cc(-c3ccnc(C(F)(F)F)c3)sc21 [Compound I-81a],< 250 nM
18,"O=C(N[C@H]1CCCn2nc(-c3cc(C(F)(F)F)ncc3Cl)cc21)c1ccnc(OC(F)(F)F)c1 [Compound I-179a, (S)-N-(2-(5-Chloro-2-(trifluoromethyl)pyridin-4-yl)-4,5,6,7-tetrahydropyrazolo[1,5-a]pyridin-4-yl)-2-(trifluoromethoxy)isonicotinamid]",< 250 nM
19,"O=C(N[C@H]1CCn2nc(-c3ccnc(C(F)(F)F)c3)cc21)c1cnn(C(F)(F)F)c1 [Compound I-573a, (S)-1-(Trifluoromethyl)-N-(2-(2-(trifluoromethyl)pyridin-4-yl)-5,6-dihydro-4H-pyrrolo[1,2-b]pyrazol-4-yl)-1H-pyrazole-4-carboxamide]",< 250 nM
20,"Cc1cc(F)cc(C(=O)N[C@H]2CCc3nn(-c4ccnc(C(F)(F)F)c4)cc32)c1 (single isomer, unassigned) [Compound I-384a]",< 250 nM
21,Cn1nc(C(F)(F)F)cc1C(=O)N[C@@H]1CCCCn2nc(-c3cc(C(F)(F)F)ncc3F)cc21 [Compound I-476b],250 to 500 nM
